# Measurements from patent US20200291018A1, “TAM KINASE INHIBITORS” (SYROS PHARMACEUTICALS, INC., priority 2017, published 2020).
# Columns and labels:
# MERTK = target: T1, MERTK (Homo sapiens, UniProt Q12866); experiment: TR-FRET kinase activity assay, MERTK; assay type: biochemical; details: for IC50: TR-FRET activity assay, ATP at Km, 60 minutes, read-out: Mer IC50; for Mer/Flt3 ratio (FLT3 IC50/Mer IC50): ratio calculated as FLT3 IC50/Mer IC50
# T1 sequence (Q12866 21-999): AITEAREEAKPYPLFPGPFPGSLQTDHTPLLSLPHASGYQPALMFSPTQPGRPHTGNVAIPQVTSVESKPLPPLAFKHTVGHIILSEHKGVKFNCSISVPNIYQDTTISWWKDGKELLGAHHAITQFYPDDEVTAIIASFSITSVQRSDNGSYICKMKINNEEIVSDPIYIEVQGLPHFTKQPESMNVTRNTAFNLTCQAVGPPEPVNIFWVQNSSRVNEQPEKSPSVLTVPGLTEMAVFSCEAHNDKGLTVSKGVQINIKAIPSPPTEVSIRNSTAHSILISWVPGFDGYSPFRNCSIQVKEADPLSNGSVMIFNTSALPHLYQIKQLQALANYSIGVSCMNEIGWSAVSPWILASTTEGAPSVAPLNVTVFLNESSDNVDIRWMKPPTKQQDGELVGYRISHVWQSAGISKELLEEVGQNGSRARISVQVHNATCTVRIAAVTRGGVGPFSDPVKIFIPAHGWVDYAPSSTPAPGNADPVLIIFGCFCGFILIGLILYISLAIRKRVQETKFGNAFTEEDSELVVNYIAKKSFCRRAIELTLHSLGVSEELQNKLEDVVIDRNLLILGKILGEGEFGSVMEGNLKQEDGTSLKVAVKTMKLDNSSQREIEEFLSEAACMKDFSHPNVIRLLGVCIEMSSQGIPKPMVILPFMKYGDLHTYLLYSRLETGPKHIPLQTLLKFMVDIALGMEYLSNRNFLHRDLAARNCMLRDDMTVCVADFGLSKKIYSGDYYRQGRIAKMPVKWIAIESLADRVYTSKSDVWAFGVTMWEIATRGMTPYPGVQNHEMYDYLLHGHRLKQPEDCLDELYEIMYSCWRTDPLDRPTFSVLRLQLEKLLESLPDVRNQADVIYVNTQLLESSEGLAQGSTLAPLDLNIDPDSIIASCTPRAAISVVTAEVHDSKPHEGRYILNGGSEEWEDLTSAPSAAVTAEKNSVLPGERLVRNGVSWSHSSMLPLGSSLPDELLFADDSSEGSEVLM
# Summary of the method: (§1)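 Each kinase phosphorylates a fluorescently labeled peptide on tyrosine in the presence of compound, with ATP at its Km, for 60 min at RT in HEPES pH 7.5 buffer with MgCl2, EGTA, Brij 35 and DTT. Product is detected by TR-FRET with a Europium-labeled phospho-specific antibody; IC50 values follow.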
# AXL = target: T2, AXL (Homo sapiens, UniProt P30530); experiment: TR-FRET kinase activity assay, AXL; assay type: biochemical; details: ATP at Km, 60 minutes
# T2 sequence (P30530 26-894): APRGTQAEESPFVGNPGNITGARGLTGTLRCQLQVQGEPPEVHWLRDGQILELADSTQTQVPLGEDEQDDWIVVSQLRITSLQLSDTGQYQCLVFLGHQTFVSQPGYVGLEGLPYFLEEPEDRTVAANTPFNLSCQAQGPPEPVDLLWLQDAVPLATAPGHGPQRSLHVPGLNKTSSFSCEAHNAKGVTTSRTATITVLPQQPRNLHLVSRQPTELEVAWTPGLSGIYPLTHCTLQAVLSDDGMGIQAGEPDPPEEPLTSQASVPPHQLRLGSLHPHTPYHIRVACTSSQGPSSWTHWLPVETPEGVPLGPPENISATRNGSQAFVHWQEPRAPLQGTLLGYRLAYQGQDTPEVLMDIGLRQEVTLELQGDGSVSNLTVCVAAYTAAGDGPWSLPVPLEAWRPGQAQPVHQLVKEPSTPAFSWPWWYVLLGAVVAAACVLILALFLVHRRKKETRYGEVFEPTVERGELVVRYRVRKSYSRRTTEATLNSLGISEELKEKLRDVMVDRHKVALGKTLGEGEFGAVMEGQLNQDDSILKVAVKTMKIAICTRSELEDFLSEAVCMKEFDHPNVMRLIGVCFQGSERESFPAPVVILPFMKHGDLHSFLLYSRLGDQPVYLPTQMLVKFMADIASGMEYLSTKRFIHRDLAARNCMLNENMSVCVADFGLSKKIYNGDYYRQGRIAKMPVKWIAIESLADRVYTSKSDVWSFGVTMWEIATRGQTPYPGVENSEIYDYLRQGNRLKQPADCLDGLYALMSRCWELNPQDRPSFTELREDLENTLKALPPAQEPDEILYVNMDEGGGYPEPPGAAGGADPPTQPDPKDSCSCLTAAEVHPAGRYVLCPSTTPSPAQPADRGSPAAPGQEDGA
# Summary of the method: as §1
SMILES,IC50 (MERTK),Mer/Flt3 ratio (FLT3 IC50/Mer IC50) (MERTK),IC50 (AXL)
COC[C@H](C)Nc1ncc2c(OC3CCOCC3)ncc([C@H]3CCCN(C)C3)c2n1 [Compound 332],100 to 1000 nM,+ (a ratio of >2.0 and <10),1000 to 10000 nM
CNC(=O)Nc1ccc(-c2cnc(OC3CCOCC3)c3cnc(N[C@@H](C)COC)nc23)cc1 [Compound 297],100 to 1000 nM,++ (a ratio of between 10 and 100),1000 to 10000 nM
COC[C@H](C)Nc1ncc2c(OC3CCOCC3)ncc(-c3cn[nH]c3)c2n1 [Compound 347],100 to 1000 nM,+ (a ratio of >2.0 and <10),1000 to 10000 nM
COC[C@H](C)Nc1ncc2c(OC3CCOCC3)ncc([C@@H]3CCCN(C)C3)c2n1 [Compound 333],1000 to 10000 nM,+ (a ratio of >2.0 and <10),1000 to 10000 nM
COC[C@H](C)Nc1ncc2c(OC3CCOCC3)ncc(-c3cccc(C#N)c3)c2n1 [Compound 320],100 to 1000 nM,++ (a ratio of between 10 and 100),1000 to 10000 nM
COC[C@H](C)Nc1ncc2c(OC3CCOCC3)ncc(C3CCCCN3C)c2n1 (stereo partly drawn) [Compound 350],100 to 1000 nM,++ (a ratio of between 10 and 100),1000 to 10000 nM
COC[C@H](C)Nc1ncc2c(OC3C[C@H]4CC[C@@H](C3)N4C)ncc([C@H]3CC[C@H](O)CC3)c2n1 (stereo partly drawn) [Compound 343],≤ 100 nM,+++ (a ratio of >100),100 to 1000 nM
COC[C@H](C)Nc1ncc2c(OC3CCOCC3)ncc([C@@H]3CCCNC3)c2n1 [Compound 327],100 to 1000 nM,++ (a ratio of between 10 and 100),1000 to 10000 nM
CCC1(Nc2ncc3c(OC4CCOCC4)ncc([C@H]4CC[C@H](O)CC4)c3n2)CC1 [Compound 339],≤ 100 nM,+++ (a ratio of >100),100 to 1000 nM
CNS(=O)(=O)N1CCC(c2cnc(OC3CCOCC3)c3cnc(N[C@@H](C)COC)nc23)CC1 [Compound 341],≤ 100 nM,+++ (a ratio of >100),1000 to 10000 nM
COC[C@H](C)Nc1ncc2c(OC3CCOCC3)ncc([C@H]3CC[C@H](NS(C)(=O)=O)CC3)c2n1 [Compound 316],≤ 100 nM,+++ (a ratio of >100),1000 to 10000 nM
COC[C@H](C)Nc1ncc2c(OC3CCOCC3)ncc(-c3cccc(S(N)(=O)=O)c3)c2n1 [Compound 328],100 to 1000 nM,++ (a ratio of between 10 and 100),1000 to 10000 nM
COCCN1C(C)(C)CC(Oc2ncc([C@H]3CC[C@H](O)CC3)c3nc(N[C@@H](C)COC)ncc23)CC1(C)C [Compound 310],≤ 100 nM,+++ (a ratio of >100),≤ 100 nM

# Now from value to molecule:
IC50 (MERTK),Mer/Flt3 ratio (FLT3 IC50/Mer IC50) (MERTK),IC50 (AXL),SMILES
≤ 100 nM,+++ (a ratio of >100),100 to 1000 nM,CCCC(C)Nc1ncc2c(=O)n(C3CCN(C)CC3)cc([C@H]3CC[C@H](O)CC3)c2n1 (stereo partly drawn) [Compound 117]
≤ 100 nM,+++ (a ratio of >100),1000 to 10000 nM,C[C@@H](CCO)Nc1ncc2c(OC3CCOCC3)ncc([C@H]3CC[C@H](O)CC3)c2n1 [Compound 284]
≤ 100 nM,+ (a ratio of >2.0 and <10),≤ 100 nM,N#Cc1ccc(Nc2ncc3c(OC4CCNCC4)ncc([C@H]4CC[C@H](O)CC4)c3n2)cc1 [Compound 331]
≤ 100 nM,+++ (a ratio of >100),100 to 1000 nM,C[C@@H](CC#N)Nc1ncc2c(OC3CCOCC3)ncc([C@H]3CC[C@H](O)CC3)c2n1 [Compound 292]
≤ 100 nM,+++ (a ratio of >100),100 to 1000 nM,CC[C@H](C)Nc1ncc2c(OC3CCN(c4ncccn4)CC3)ncc([C@H]3CC[C@H](O)CC3)c2n1 [Compound 306]
≤ 100 nM,+++ (a ratio of >100),100 to 1000 nM,CC[C@H](C)Nc1ncc2c(O[C@H]3CC[C@@H](N(C)C)C3)ncc([C@H]3CC[C@H](O)CC3)c2n1 [Compound 298]
≤ 100 nM,+++ (a ratio of >100),100 to 1000 nM,CC(C)Nc1ncc2c(OC3CCOCC3)ncc(-c3cccc(S(C)(=O)=O)c3)c2n1 [Compound 313]
≤ 100 nM,+++ (a ratio of >100),100 to 1000 nM,CC(C)CC(C)Nc1ncc2c(=O)n(C3CCNCC3)cc([C@H]3CC[C@H](O)CC3)c2n1 (stereo partly drawn) [Compound 119]
≤ 100 nM,+++ (a ratio of >100),100 to 1000 nM,CCCC(C)Nc1ncc2c(=O)n(C3CCNCC3)cc([C@H]3CC[C@H](O)CC3)c2n1 (stereo partly drawn) [Compound 112]
≤ 100 nM,+++ (a ratio of >100),≤ 100 nM,O=C(O)c1ccc(Nc2ncc3c(OC4CCNCC4)ncc([C@H]4CC[C@H](O)CC4)c3n2)cc1 [Compound 283]
≤ 100 nM,+++ (a ratio of >100),1000 to 10000 nM,COC[C@H](C)Nc1ncc2c(O[C@@H]3CCOC3)ncc([C@H]3CC[C@H](O)CC3)c2n1 [Compound 354]
≤ 100 nM,+ (a ratio of >2.0 and <10),100 to 1000 nM,CCCCNc1cc2c(cn1)c(=O)n(C1CCN(C)CC1)cc2[C@H]1CC[C@H](O)CC1 [Compound 116]
≤ 100 nM,+++ (a ratio of >100),1000 to 10000 nM,COC[C@H](C)Nc1ncc2c(OC3CCOCC3)ncc(-c3ccc(N)cc3)c2n1 [Compound 309]
≤ 100 nM,+++ (a ratio of >100),1000 to 10000 nM,COC[C@H](C)Nc1cc2c(cn1)c(OC1CCOCC1)ncc2[C@H]1CC[C@H](O)CC1 [Compound 285]
≤ 100 nM,++ (a ratio of between 10 and 100),100 to 1000 nM,O[C@H]1CC[C@H](c2cnc(OC3CCOCC3)c3cnc(N[C@H]4CCC(F)(F)C4)nc32)CC1 [Compound 336]
≤ 100 nM,+++ (a ratio of >100),100 to 1000 nM,C[C@@H](CC(F)(F)F)Nc1ncc2c(OC3CCOCC3)ncc([C@H]3CC[C@H](O)CC3)c2n1 [Compound 305]
≤ 100 nM,+++ (a ratio of >100),100 to 1000 nM,C[C@@H](CF)Nc1ncc2c(OC3CCOCC3)ncc([C@H]3CC[C@H](O)CC3)c2n1 [Compound 304]
≤ 100 nM,+++ (a ratio of >100),100 to 1000 nM,C[C@@H](CCF)Nc1ncc2c(OC3CCOCC3)ncc([C@H]3CC[C@H](O)CC3)c2n1 [Compound 311]
≤ 100 nM,+++ (a ratio of >100),100 to 1000 nM,CC(C)Nc1ncc2c(OC3CCOCC3)ncc(-c3cccc(S(=O)(=O)C(C)C)c3)c2n1 [Compound 318]
